Assay results reported in ChEMBL document CHEMBL1201862, “PubChem BioAssay data set” (2004).
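Growth conditions: 96-well plates. Treatment: test compound, 48 hours, 5 concentrations. Analysis: linear interpolation between bracketing concentrations; unreached endpoints set to highest concentration. GI50 marks 50% less growth.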 Calls of active or inactive are those of the source. Rule as the data show it: active = GI50 up to about 1.1 µM and inactive = higher.

Legend:
Assay in all cases: inhibition of tumour cell growth, NCI panel, 48 h
[1] = tested on: XF498
[2] = tested on: RXF 631
[3] = tested on: LXFL 529
[4] = tested on: DMS-114
[5] = tested on: DLD-1
[6] = tested on: HOP-18
[7] = tested on: KM-20L2
[8] = tested on: DMS-273
[9] = tested on: M19-MEL

Measured: GI50

Cn1cnc([N+](=O)[O-])c1Sc1nc2cccnc2[nH]1
inactive: [1] 45.8 µM | [2] 1.73 µM | [3] 39.2 µM | [4] 24.8 µM | [5] 25.6 µM | [6] 70.1 µM | [7] > 100 µM | [8] 1.61 µM

CCOC(=O)C1S/C(=N\c2ccc(Cl)c(Cl)c2)N=C1C (configuration not stated)
inactive: [1] 35.6 µM | [2] 58.6 µM | [3] 34.4 µM | [5] 25.1 µM | [6] 96.8 µM | [7] 20.9 µM | [9] 26.2 µM | [8] 41.2 µM

CCCCCCCCCC(=O)Oc1cccc2onc(C)c12
inactive: [2] > 100 µM | [3] > 100 µM | [4] > 100 µM | [5] > 100 µM | [6] > 100 µM | [7] > 100 µM | [9] > 100 µM | [8] > 100 µM

O=NN(CCCl)C(=O)N[C@H]1CC[C@@H](C(=O)O)CC1
inactive: [1] > 100 µM | [2] > 100 µM | [3] > 100 µM | [4] 52.7 µM | [5] > 100 µM | [6] > 69.5 µM | [7] > 100 µM | [9] > 100 µM | [8] > 100 µM

CCn1c2c(n(CC)c1=S)-c1c(n(CC)c(=S)n1CC)SSSS2
inactive: [1] 1.52 µM | [2] 15.3 µM | [3] 2.1 µM | [4] 15.8 µM | [5] 1.63 µM | [6] 8.85 µM | [7] 11.6 µM | [9] 7.78 µM | [8] 17.5 µM

Brc1ccc2c(c1)C1(c3cc(Br)ccc3-2)c2cc(Br)ccc2-c2ccc(Br)cc21
inactive: [1] > 100 µM | [2] > 100 µM | [3] > 100 µM | [4] > 100 µM | [5] > 100 µM | [6] > 100 µM | [7] > 100 µM | [9] > 100 µM | [8] > 100 µM

COC(=O)c1cc(Br)c(Br)n1C
inactive: [1] > 100 µM | [2] > 100 µM | [3] > 100 µM | [4] > 100 µM | [5] 81.8 µM | [6] > 100 µM | [7] > 100 µM | [9] > 100 µM | [8] > 100 µM

O=C(O)CCSC(=O)Nc1cccc2ccccc12
inactive: [1] > 100 µM | [2] > 100 µM | [3] > 100 µM | [4] > 100 µM | [5] > 100 µM | [6] > 100 µM | [7] > 100 µM | [9] > 100 µM | [8] > 100 µM

Nc1ccc(C(=O)N/C(=C\c2cccc([N+](=O)[O-])c2)c2nc3c4c(ccc3[nH]2)C(=O)c2ccccc2C4=O)cc1
inactive: [1] > 100 µM | [2] 29.9 µM | [3] 16.5 µM | [4] 8.18 µM | [5] 11.2 µM | [6] 11 µM | [7] > 100 µM | [9] > 100 µM | [8] 27.5 µM

CC1CCC(O)C(C(O)CC2CC(=O)N(C)C(=O)C2)C1 (configuration not stated)
inactive: [1] > 100 µM | [2] > 100 µM | [3] > 100 µM | [4] > 100 µM | [5] > 100 µM | [6] > 100 µM | [7] > 100 µM | [9] > 100 µM | [8] > 100 µM
